In the NIST ThermoML archive (doi:10.1016/j.tca.2015.01.022):

Experiment: molar heat capacity at constant pressure
Conditions: 101.33 kPa, Small (less than 1 g) adiabatic calorimetry

CCCCn1cc[n+](C)c1.F[B-](F)(F)F [1-butyl-3-methylimidazolium tetrafluoroborate]
Conditions	molar heat capacity at constant pressure [J/K/mol]
5 K, Glass	1.47
5.16 K, Glass	1.62
5.39 K, Glass	1.822
5.67 K, Glass	2.094
5.96 K, Glass	2.397
6.28 K, Glass	2.762
6.64 K, Glass	3.192
7 K, Glass	3.657
7.36 K, Glass	4.172
7.73 K, Glass	4.709
8.11 K, Glass	5.283
8.49 K, Glass	5.896
8.87 K, Glass	6.54
9.26 K, Glass	7.211
9.64 K, Glass	7.915
10 K, Glass	8.59
10.03 K, Glass	8.641
10.52 K, Glass	9.597
11.13 K, Glass	10.83
11.75 K, Glass	12.13
12.36 K, Glass	13.44
12.97 K, Glass	14.81
13.59 K, Glass	16.22
14.22 K, Glass	17.7
14.85 K, Glass	19.2
15 K, Glass	19.58
15.58 K, Glass	20.98
16.44 K, Glass	23.16
17.29 K, Glass	25.28
18.15 K, Glass	27.41
19.01 K, Glass	29.55
19.88 K, Glass	31.75
20 K, Glass	32.08
21.08 K, Glass	34.8
22.63 K, Glass	38.75
24.2 K, Glass	42.72
25 K, Glass	44.7
25.76 K, Glass	46.64
27.21 K, Glass	50.17
28.7 K, Glass	53.74
30 K, Glass	56.8
30.28 K, Glass	57.41
32.02 K, Glass	61.38
33.93 K, Glass	65.51
35 K, Glass	67.76
35.84 K, Glass	69.47
37.75 K, Glass	73.26
39.66 K, Glass	76.94
40 K, Glass	77.68
41.67 K, Glass	80.75
43.78 K, Glass	84.66
45 K, Glass	86.86
45.89 K, Glass	88.43
48 K, Glass	92.13
50 K, Glass	95.33
50.12 K, Glass	95.61
52.24 K, Glass	99
54.36 K, Glass	102.2
56.48 K, Glass	105.3
58.61 K, Glass	108.4
60 K, Glass	110.5
60.75 K, Glass	111.5
62.88 K, Glass	114.5
65.01 K, Glass	117.4
67.14 K, Glass	120.3
69.28 K, Glass	123.1
70 K, Glass	124.2
71.52 K, Glass	126
73.86 K, Glass	129.1
76.21 K, Glass	132.1
78.57 K, Glass	135.1
78.59 K, Glass	135
80 K, Glass	136.7
80.92 K, Glass	137.8
81.08 K, Glass	138.2
83.28 K, Glass	140.7
83.48 K, Glass	140.7
85.56 K, Glass	143.1
85.91 K, Glass	143.3
88.1 K, Glass	145.9
88.36 K, Glass	146.1
90 K, Glass	148.1
90.56 K, Glass	148.7
90.83 K, Glass	148.8
93.04 K, Glass	151.5
93.31 K, Glass	151.6
95.54 K, Glass	154.3
95.81 K, Glass	154.3
98.06 K, Glass	156.9
98.33 K, Glass	156.9
100 K, Glass	158.7
100.58 K, Glass	159.4
100.87 K, Glass	159.6
103.12 K, Glass	162
103.41 K, Glass	162.3
105.68 K, Glass	164.7
105.97 K, Glass	164.9
108.24 K, Glass	167.2
108.53 K, Glass	167.4
110 K, Glass	169
110.81 K, Glass	169.8
111.11 K, Glass	170.1
113.39 K, Glass	172.7
113.69 K, Glass	172.7
115.97 K, Glass	175.1
116.27 K, Glass	175.4
118.56 K, Glass	177.8
118.87 K, Glass	178
120 K, Glass	179.2
121.16 K, Glass	180.5
121.47 K, Glass	180.7
123.76 K, Glass	183.1
124.08 K, Glass	183.2
126.37 K, Glass	185.5
126.68 K, Glass	185.8
128.98 K, Glass	188.1
129.3 K, Glass	188.4
130 K, Glass	189.1
131.59 K, Glass	190.7
131.91 K, Glass	191
133.42 K, Glass	192.4
134.2 K, Glass	193.3
134.53 K, Glass	193.6
136.1 K, Glass	195
136.82 K, Glass	195.9
137.15 K, Glass	196.2
138.71 K, Glass	197.7
139.43 K, Glass	198.3
139.77 K, Glass	198.7
140 K, Glass	198.9
141.33 K, Glass	200.2
142.05 K, Glass	201.1
142.38 K, Glass	201.3
143.94 K, Glass	202.8
144.67 K, Glass	203.6
145 K, Glass	203.9
146.55 K, Glass	205.4
147.29 K, Glass	206.3
147.63 K, Glass	206.5
149.17 K, Glass	208
149.9 K, Glass	209.1
150 K, Glass	208.9
150.24 K, Glass	209.1
151.78 K, Glass	210.6
152.52 K, Glass	211.6
152.86 K, Glass	211.8
154.39 K, Glass	213.3
155.13 K, Glass	214.2
155.48 K, Glass	214.4
157 K, Glass	216
157.74 K, Glass	216.9
158.09 K, Glass	217.2
159.61 K, Glass	218.7
160 K, Glass	219.3
160.35 K, Glass	219.7
160.71 K, Glass	219.9
162.21 K, Glass	221.6
162.96 K, Glass	222.4
163.32 K, Glass	222.8
164.8 K, Glass	224.5
165.57 K, Glass	225.6
165.93 K, Glass	225.7
167.4 K, Glass	227.5
168.19 K, Glass	228.6
168.53 K, Glass	228.9
169.99 K, Glass	230.8
170 K, Glass	230.8
170.79 K, Glass	232
171.13 K, Glass	232.5
172.58 K, Glass	234.6
173.37 K, Glass	236
173.73 K, Glass	236.7
175.18 K, Glass	239.5
175.96 K, Glass	241.5
176.31 K, Glass	242.4
177.73 K, Glass	247
178.51 K, Glass	249.7
178.86 K, Glass	251.9
180 K, Glass	260.4
180.22 K, Glass	262.1
180.97 K, Glass	268.6
181.29 K, Liquid	276.1
182.48 K, Liquid	309.1
183.17 K, Liquid	322.3
183.45 K, Liquid	329.7
184.59 K, Liquid	329.2
185.3 K, Liquid	329.5
185.6 K, Liquid	330
186.77 K, Liquid	331
187.48 K, Liquid	331.6
187.79 K, Liquid	331.2
188.95 K, Liquid	331.4
189.98 K, Liquid	331.5
190 K, Liquid	331.5
191.13 K, Liquid	331.6
192.17 K, Liquid	331.7
193.32 K, Liquid	331.9
194.37 K, Liquid	332
195.51 K, Liquid	332.2
196.58 K, Liquid	332.3
197.71 K, Liquid	332.5
198.79 K, Liquid	332.6
199.91 K, Liquid	332.8
200 K, Liquid	333
202.13 K, Liquid	333.2
204.34 K, Liquid	333.6
206.55 K, Liquid	334
208.77 K, Liquid	334.5
210 K, Liquid	335.1
210.99 K, Liquid	334.9
213.22 K, Liquid	335.4
215.44 K, Liquid	335.9
220 K, Liquid	337.5
230 K, Liquid	340.4
240 K, Liquid	343.6
250 K, Liquid	347.2
260 K, Liquid	350.9
263.82 K, Liquid	351.8
266.12 K, Liquid	352.8
268.4 K, Liquid	353.7
270 K, Liquid	354.9
270.68 K, Liquid	354.6
272.95 K, Liquid	355.5
275.23 K, Liquid	356.5
277.5 K, Liquid	357.6
279.78 K, Liquid	358.5
280 K, Liquid	359
282.05 K, Liquid	359.5
284.33 K, Liquid	360.3
286.6 K, Liquid	361.3
288.87 K, Liquid	362.4
290 K, Liquid	363.2
291.14 K, Liquid	363.3
293.42 K, Liquid	364.3
295.69 K, Liquid	365.2
297.95 K, Liquid	366.4
298.15 K, Liquid	366.7
300 K, Liquid	367.6
300.22 K, Liquid	367.4
302.49 K, Liquid	368.5
304.75 K, Liquid	369.6
307.02 K, Liquid	370.7
309.28 K, Liquid	371.7
310 K, Liquid	372.3
311.54 K, Liquid	372.7
313.8 K, Liquid	373.8
316.06 K, Liquid	375
318.32 K, Liquid	376.1
320 K, Liquid	377
320.58 K, Liquid	377
322.83 K, Liquid	378
325.09 K, Liquid	379.3
327.34 K, Liquid	380.1
329.59 K, Liquid	381.1
330 K, Liquid	381.7
331.84 K, Liquid	382.2
334.09 K, Liquid	383.3
336.34 K, Liquid	384.3
338.58 K, Liquid	385.6
340 K, Liquid	386.4
340.83 K, Liquid	386.7
343.08 K, Liquid	387.6
345.32 K, Liquid	388.7
347.57 K, Liquid	389.7
349.81 K, Liquid	390.7
350 K, Liquid	391.1
352.05 K, Liquid	391.7
354.29 K, Liquid	392.8
356.53 K, Liquid	393.9
358.76 K, Liquid	394.9
360 K, Liquid	395.9
361 K, Liquid	395.8
363.23 K, Liquid	397.1
365.46 K, Liquid	398
367.7 K, Liquid	399
370 K, Liquid	400.6
